US20220193029A1, “BRYOSTATIN COMPOUNDS FOR ENHANCEMENT OF IMMUNOTHERAPY” (priority 2019, published 2022)
pKi: −log10 of the molar value.

Columns and labels:
[1] = target: T1, PKCδ (Homo sapiens, UniProt Q05655); test: cell-free competitive PKC binding assay with [3H]-phorbol dibutyrate; settings: competition with [3H]-PDBu, recombinant human PKC isoform
T1 construct: purchased Invitrogen
Method: (§1) Because a prerequisite for PKC pathway involvement is binding to PKC, compounds were initially evaluated for PKC affinity in a cell-free competitive binding assay with tritiated phorbol dibutyrate ([^3H]-PDBu). Assays were performed with representative members of both the conventional (PKCα) and novel (PKCδ) PKC families. Subsequently, compounds were assayed for PKC activation in living cells using an isoform translocation assay.
To a 50 mL polypropylene tube was added Tris-HCl (pH 7.4, 1 M, 1 mL), KCl (1 M, 2 mL), CaCl2) (0.1 M, 30 μL), and bovine serum albumin (BSA, 40 mg, Sigma-Aldrich). This mixture was diluted to 20 mL with deionized H2O and mixed gently. The buffer was stored on ice until use.
For every two assays, 3.5 mg phosphatidylserine (Avanti Polar Lipids, porcine, 25 mg/mL CHCl3 solution) was concentrated by removing chloroform under a stream of nitrogen followed by reduced pressure. The solid PS was suspended as vesicles in freshly prepared PKC binding assay buffer (3.5 mL) by sonicating six times for 30 sec, with a 30 sec rest between sonications (Branson Sonifier 250, power=2, 50% duty cycle). The resulting milky cloudy mixture (1 mg/mL) was stored on ice until use.
Assay PKC was prepared by dissolving a 4 μg aliquot of the indicated recombinant human PKC isoform (Invitrogen) into 11.6 mL of PKC binding assay buffer (this amount is sufficient for two assays). The diluted PKC was stored on ice for immediate use.
^3H-PDBu (American Radiolabeled Chemicals, Inc.; 1 mCi/mL acetone solution; specific activity: 20 Ci/mmol) was diluted […] with DMSO. The resulting 500 nM stock solution was further diluted with DMSO to 30 nM.
Compound dilutions were prepared by serially diluting from a chosen “high” concentration by factors of 3 or 4.
To a polypropylene tube was added 3.3 mL of 1 mg/mL PS vesicles solution, 11 mL of PKC isoform solution, and 1.1 mL of 30 nM ^3H-PDBu solution were added. The resulting solution was vortexed to mix and stored on ice.
Materials: • Glass-fiber filters (Whatman GF/B) were prepared by soaking them in a solution of aqueous polyethyleneimine (10% by vol, 18 mL) in deionized water (600 mL) for ≥1 h. • 500 mL “rinsing buffer” of 20 mM Tris, pH 7.4 was cooled on ice for the duration of the incubation period and for the remainder of the assay.
Triplicate data points were obtained for each analog concentration. For each data point, 280 μL of “Master Mix” Solution and 20 μL of analog compound at a specified concentration were added to a polypropylene tube. […] Maximal ^3H-PDBu binding was assessed in triplicate by substitution of the analog compound with 20 μL DMSO. The solutions were vortexed to mix, incubated at 37° C. for 10 min, and incubated on ice for at least 30 min prior to filtration. Using a Brandel Harvester, the assay contents from each polypropylene tube were vacuum-filtered through polyethylenimine-soaked filters, washing with rinsing buffer (3×) and drying first under vacuum for 5 min and then under ambient conditions for ≥2 h. The resulting filters had circular perforations for each data point, which were removed with forceps and placed in a scintillation vial. Scintillation vials were filled with Bio-Safe II scintillation fluid (5 mL) and measured for radioactivity using a Beckman LS 6000SC scintillation counter. Counts per minute (cpm) were averaged for each triplicate dilution. The data were plotted—cpm vs. log(concentration)—using Prism® by GraphPad Software and an IC50 was determined using that program's built-in one-site competition least squares regression function. […] The Kd of ^3H-PDBu for PKC isoforms was measured separately via saturation binding experiments under identical conditions.

[2] = system: PKCδ-GFP fusion protein; test: PKCδ-GFP translocation assay in living CHO-k1 cells (confocal microscopy); format: cell-based, Chinese hamster; settings: for concentration* (minimum effective concentration required to induce translocation of PKC-GFP to the membrane) / % Translocation: CHO-k1 cells; for % Translocation: maximum translocation of PKCδ-GFP to the plasma membrane at the concentration printed in the same cell, SUW212: only brief translocation observed; for PKC translocation behavior / dynamics of PKC activation: time course, FIG. 6 panels C-D
Method: as §1
Chinese hamster ovary factor K1 (CHO-k1, ATCC) cells were cultured in F-12 Kaighn's media (Hyclone, 10% fetal bovine serum, 1% penicillin/streptomycin added, referred to as F-12+/+ below) at 37° C. in an incubator (5% CO2). Cell cultures were maintained by splitting cells 1:3 when they reached ˜75-100% confluence (every 2-3 days) as follows:
1 mL of the cell suspension was then added to 9 mL of fresh F-12+/+ and the sample was sub-cultured until reaching confluence (˜2-3 days).
Cells were counted using a Countess II Automated Cell Counter (Fisher). The cell suspension was diluted to 240,000 cells/mL with fresh F-12+/+ and 2.5 mL of this diluted stock was added to one well in a 6-well plate. The cells were then cultured for 24 hours.
F-12+/+ was aspirated and cells were washed with F-12−/−. 2 mL of fresh F-12−/− was then added to each well, taking care not to disturb adherent cells. For each well of CHO-k1 cells, 12.5 μL Lipofectamine 2000 reagent (Invitrogen) was added to 250 μL Opti-MEM reduced serum media (Invitrogen) in a polypropylene tube and incubated for 20 minutes at RT. Meanwhile, for each well, 4 μg of PKCδ-GFP pDNA and 250 μL Opti-MEM reduced serum media was added to a separate polypropylene tube. 250 μL of the Lipofectamine 2000 suspension was added to the DNA suspension and the solution incubated for 30 minutes at RT. 500 μL of the Lipofectamine/DNA suspension was added to the respective wells of the 6-well plate. The cells were then incubated at 37° C. (5% CO2) for ˜24 hrs.
F-12+/+ was aspirated and cells were washed with F-12−/−. 2.4 mL of fresh F-12−/− was then added to each well, taking care not to disturb adherent cells. A 4 μg aliquot of PKCδ-GFP pDNA was added to PBS (pH 5.5, final volume 100 μL). 5.6 μL of DA 13:11 (2 mM stock in DMSO) was then added to the DNA solution, and the mixture was gently mixed (by flicking) for 20 seconds, at which point it was added directly to the respective wells of the 6-well plate. The cells were then incubated at 37° C. (5% C02) for ˜24 hrs.
After incubation, the media was aspirated and cells were washed with PBS (2.0 mL) and trypsinized (500 μL). The cell suspension was then diluted with 2.0 mL F-12+/+. 200 μL aliquots were added to 3 wells of a Lab-Tek II 4-well chambered coverglass slide (Fisher), producing 4 slides in total, each with three wells of cells. The cell suspension was directly diluted with 600 μL of additional F-12+/+. The resulting samples were incubated for ˜24 hrs. prior to imaging.
Fluorescent images were obtained using a Leica SP8 White Light Confocal microscope and the Leica AF software package. Prior to analysis, media was aspirated and 800 μL of PBS (Hyclone, without Ca^2+ or Mg^2+) supplemented with glucose (10 mM) was added to each well of the chambered coverglass slide. Bryostatin and bryostatin analogs were diluted to the appropriate concentration in 200 μL of 10 mM glucose in PBS. Cells were located for imaging and data was recorded for three wells in parallel, imaging at predetermined positions in each well using adaptive focus control. Cells were imaged at 30 second intervals following the addition of compound (set to t=0) for 20-40 minutes. Data were recorded at room temperature. Images were exported as .lif files and fluorescence intensity was analyzed using FIJI (NIH) software.

T1 sequence (Q05655 whole entry, canonical isoform): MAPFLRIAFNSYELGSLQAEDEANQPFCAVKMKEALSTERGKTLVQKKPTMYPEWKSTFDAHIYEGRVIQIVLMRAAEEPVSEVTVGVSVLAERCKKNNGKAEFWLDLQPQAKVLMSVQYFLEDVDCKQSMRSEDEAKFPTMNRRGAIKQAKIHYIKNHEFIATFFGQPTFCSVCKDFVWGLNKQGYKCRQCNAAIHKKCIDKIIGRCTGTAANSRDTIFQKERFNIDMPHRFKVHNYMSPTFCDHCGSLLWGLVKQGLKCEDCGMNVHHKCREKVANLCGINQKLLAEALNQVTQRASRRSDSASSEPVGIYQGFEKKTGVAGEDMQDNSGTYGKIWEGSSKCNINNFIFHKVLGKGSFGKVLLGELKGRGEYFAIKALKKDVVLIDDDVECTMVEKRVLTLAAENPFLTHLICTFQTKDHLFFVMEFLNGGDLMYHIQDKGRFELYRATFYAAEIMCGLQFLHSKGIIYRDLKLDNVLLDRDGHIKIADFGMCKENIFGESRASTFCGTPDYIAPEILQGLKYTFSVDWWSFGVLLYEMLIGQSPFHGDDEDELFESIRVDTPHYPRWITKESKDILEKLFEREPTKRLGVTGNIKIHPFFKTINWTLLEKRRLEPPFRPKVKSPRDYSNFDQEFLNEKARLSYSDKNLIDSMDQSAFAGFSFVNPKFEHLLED

Row | Structure (SMILES) | pKi [1] | concentration* (minimum effective concentration required to induce translocation of PKC-GFP to the membrane) [2] [nM] | % Translocation [2] [%] | cytosolic PKC translocated ([2]; 1000 nM) [%] | PKC translocation behavior / dynamics of PKC activation [2]
1 | CCCCCCCC(=O)O[C@H]1/C(=C/C(=O)OC)C[C@H]2C[C@H]([C@@H](C)O)OC(=O)C[C@H](O)C[C@@H]3C[C@H](OC(C)=O)C(C)(C)[C@](O)(C[C@@H]4C[C@@H](C)C[C@H](/C=C/C(C)(C)[C@]1(O)O2)O4)O3 [SUW226] | 8.18 | 200 | 75 |  | 
2 | CCCCCC#CC(=O)O[C@H]1/C(=C/C(=O)OC)C[C@H]2C[C@H]([C@@H](C)O)OC(=O)C[C@H](O)C[C@@H]3C[C@H](OC(C)=O)C(C)(C)[C@](O)(C[C@@H]4C[C@@](O)(CO)C[C@H](/C=C/C(C)(C)[C@]1(O)O2)O4)O3 [SUW203] | 8.39 | 1000 | 50 | ~50 | 
3 | CCCC=CC=CC(=O)OC1C(=CC(=O)OC)CC2CC(C(C)O)OC(=O)CC(O)CC3CC(OC(C)=O)C(C)(C)C(O)(CC4CC(=CC(=O)OCC)CC(C=CC(C)(C)C1(O)O2)O4)O3 (centres unmarked) [SUW218] | 8.18 | 200 | 55 |  | more sustained linear activation dynamics
4 | C=CCOC(=O)/C=C1/C[C@H]2C[C@]3(O)O[C@H](C[C@@H](O)CC(=O)O[C@@H]([C@@H](C)O)C[C@@H]4C/C(=C\C(=O)OC)[C@H](OC(=O)/C=C/C=C/CCC)[C@@](O)(O4)C(C)(C)/C=C/[C@@H](C1)O2)C[C@H](OC(C)=O)C3(C)C [SUW229] | 8.92 | 200 | 50 |  | more sustained linear activation dynamics
5 | CCC/C=C/C=C/C(=O)O[C@H]1/C(=C/C(=O)OC)C[C@H]2C[C@H]([C@@H](C)O)OC(=O)C[C@H](O)C[C@@H]3C[C@H](OC(C)=O)C(C)(C)[C@](O)(C[C@@H]4C[C@H](OC(C)=O)C[C@H](/C=C/C(C)(C)[C@]1(O)O2)O4)O3 [SUW206] | 8.89 | 200 | 60 |  | almost identical behavior both to each other and to bryostatin 1
6 | CCCC=CC=CC(=O)OC1C(=CC(=O)OC)CC2CC(C(C)O)OC(=O)CC(O)CC3CC(OC(C)=O)C(C)(C)C(O)(CC4CC(=CC(=O)OCC)CC(C=CC(C)(C)C1(O)O2)O4)O3 (centres unmarked) [SUW217] | 8.03 | 200 | 75 |  | 
7 | CCC/C=C/C=C/C(=O)O[C@H]1/C(=C/C(=O)OC)C[C@H]2C[C@H]([C@@H](C)O)OC(=O)C[C@H](O)C[C@@H]3C[C@H](OC(C)=O)C(C)(C)[C@](O)(C[C@@H]4C[C@@H](OC(C)=O)C[C@H](/C=C/C(C)(C)[C@]1(O)O2)O4)O3 [SUW207] | 8.27 | 200 | 60 |  | almost identical behavior both to each other and to bryostatin 1
